This is an account of results in PMC8162347, “Bolaamphiphilic Bis-Dehydropeptide Hydrogels as Potential Drug Release Systems” (Gels, 2021).

A short description of data set [1]: Gelation study, pH trigger with GdL, vial inversion test. Format: physicochemical. The settings on record: for Critical Gelation Concentration (cgc): vial inversion test, water, NaOH (1 M) to circa pH 10, then GDL 0.4 wt %. From the text:
Nonetheless, dimeric dehydropeptides 1–4 could be dissolved in water upon pH adjustment to pH 10–11, which was achieved by addition of NaOH solution (1 M). Gel formation was triggered by a slow pH drop. The pH change was obtained by the aqueous hydrolysis of added D-glucono-δ-lactone (GdL) to D-gluconic acid. […] The CGCs of hydrogels 1–3 were qualitatively assessed by varying the peptide concentrations and conducting vial inversion tests.
Dehydrodipeptides 1, 2 and 3 were weighed into sample vials, water was added, and the suspension was adjusted under magnetic stirring to circa pH 10 (pH meter) by the addition of NaOH (1 M), and D-glucono-δ-lactone (GDL) was added. The solutions were left standing overnight at room temperature (20–25 °C).

A short description of data set [2]: Oscillatory rheology of hydrogels. Format: physicochemical. The settings on record: hydrogel at structural equilibrium, frequency sweep 100 to 0.1 Hz, strain 0.01%, 25 °C. From the text: This is due to the rather small deformation used during this test to allow gel formation without disturbing the build-up of the network structure. In contrast to this, see the data for compounds 1 and 2. A two-step model is often used to describe the nucleation (with rate constant kn) and growth (with rate constant k) of aggregates of peptides:(1) f(t) = G0 + dGρ(e^(1+ρ)kt − 1)/1 + ρe^(1+ρ)kt where ρ = kn/k , G0 is the initial storage modulus of the aggregate-free solution, and dG is the increment in the storage modulus during the kinetics.
After reaching the structural equilibrium established by the reading of constant shear moduli G′ and G″ with time, a frequency-sweep from 100 down to 0.1 Hz was performed with a strain of 0.01% (Figure S6 in Supplementary Information). For hydrogels obtained from compounds 1, 2, and 3, G′ is essentially constant over the frequency domain tested, and it is 10 times larger than G″. Overall, all mechanical spectra are qualitatively similar and reminiscent of the rheological signature of gels, as G′ is higher than G″ for hydrogels of compounds 1–3 (Table 3). ′
After the thermal cycle, gels were submitted to a strain sweep, where the frequency was maintained at 1 Hz. The hydrogels of compounds 2 and 1 break up more easily than hydrogel of compound 3 (Figure 7). […] In summary, and connecting the rheological data to the structural information inferred from both STEM and CD, coil conformers of compound 2 rapidly self-assemble to build a rubber-like (entropic) network, which brings most of the gel elasticity. This is in contrast to the elastically weaker gels of compound 3, which are predominantly made from the networking of fibrils likely formed from beta conformers. Gels of compound 1 show intermediate elasticity, originating from the slower networking of a mixture of coil and beta sheet conformers.
The viscoelastic characterization of hydrogels was performed with a stress-controlled rotational rheometer Anton Paar MCR300 (Anton Paar GmbH, Graz, Austria). Gel-forming solutions were loaded in the shearing geometry (a Couette cell with 1 mL volume and 0.5 mm gap) at 25 °C. The liquid sample was pre-sheared at a shear rate of 5 s^−1 during one minute to homogenize the sample in the shearing geometry. Then, the gelation kinetics was monitored during 10 h by applying a small amplitude (0.001%) oscillatory shear at 1 Hz and recording both storage (G′) and loss (G″) moduli at each second. Then, mechanical spectra were recorded, and gels were submitted to a heating–cooling cycle between 25 and 40 °C at a rate of +/−1 °C/min. Finally, gels were submitted to a strain sweep.

Data set [3] has as its system HaCaT cell line (human keratinocytes). Description: MTT assay, cell viability. Format: cell-based. To be noted: 24 h, most concentrations tested, independent of concentration. As for the experimental part: Human keratinocytes cell line HaCaT was from ATCC. Cells were cultured in DMEM supplemented with 10% FBS and 1% penicillin/streptomycin and were incubated at 37 °C, in a humidified atmosphere of 5% CO2.
Cells were seeded in 96-well plates (1.5 × 10^4 cells/well) and left to attach for 24 h. After this period, cells were incubated with different concentrations of the molecules under study for another 24 h. Then, cell viability was evaluated based on the ability of metabolically active cells to convert MTT to formazan over the course of 2 h. Absorbances were measured at 570 nm in a Multiskan GO plate reader (Thermo Fisher Scientific; Waltham, MA, USA) and results were expressed as percentage of the respective control and correspond to the mean ± standard error of the mean (SEM) of at least three independent experiments performed in triplicate. On the other hand, to assess the release of the stable cytosolic enzyme lactate dehydrogenase (LDH) into the media, 24 h after the incubation of the cells with the different concentrations of the molecules under study, 40 µL of culture media were removed to a 96-well plate. LDH released was determined using a CytoTox 96® assay kit (Promega; Madison, WI, USA) according to the manufacturer’s instructions. Then, 1% Triton X-100 was used as positive control to assure cell lysis (30 min). Absorbances were measured at 490 nm in a Multiskan GO plate reader (Thermo Fisher Scientific; Waltham, MA, USA), and results correspond to the fold-increase of absorbance in treated vs. untreated cells of three independent experiments performed in duplicate. Following assessment of the distribution of the results, ANOVA was performed using GraphPad Prism 8.0 (GraphPad Prism Inc., San Diego, CA, USA).

A short description of data set [4]: Sustained release assay of model cargo from hydrogels. As for the experimental part: Hydrogels containing cationic, anionic, or zwitterionic model drugs were prepared using the same conditions described in Section 2.2 but with the water component (1 mL) being replaced by a methylene blue solution, methyl orange solution, or ciprofloxacin solution. In a modified version of the method described by Abraham et al., water was carefully layered on top of the hydrogel surface. Then, the percentage release of model drug was recorded versus time, over 6 days, through UV absorption measurements or by HPLC and then subsequently fitted to a standard calibration curve (Figure S10 in Supplementary Information). The experiments were also assessed visually (Figure 9). […] In the studies involving the release of methyl orange, a clearly visible release of the anionic dye into the layered water solution was observed from the three hydrogels after several days (Figure 9B,D,F centre). The results for the release of methyl orange were also confirmed quantitatively by UV absorption measurements. Hydrogelators 1 and 3, which contain a phenylalanine residue, release nearly 60% of the anionic methyl orange cargo, whereas hydrogel 2, containing a tyrosine residue, released more than 90%. […] Ciprofloxacin was included as an overall neutral cargo. In experiments involving hydrogels of compounds 1–3 containing ciprofloxacin, the amount of ciprofloxacin present in the above water layer was determined by HPLC at various time-points. Hydrogelators 1, 2, and 3 release 32%, 58%, and 20% of their ciprofloxacin cargo, respectively (Table 4) (Figure S11 in Supplementary Information). As observed for methyl orange, the hydrogel that releases the greatest amount of ciprofloxacin is the hydrogel obtained from compound 2 (Table 4, Figure S11 in Supplementary Information).
To quantitatively evaluate the drug release from hydrogels 1–3, several mathematical models were tested to see which one fits the tested hydrogels. The Korsmeyer–Peppas model is the preferred model for polymeric systems. Korsmeyer described a simple relationship that described drug release from a polymeric system that includes both the diffusion and erosion of the polymer chain. The following equation describes the Korsmeyer–Peppas model: Mt/M = Kt^n
Hydrogels of 1, 2, and 3 were prepared as described in Section 4.2 to form 1 mL hydrogels containing the same concentration of the hydrogelators described above and the appropriate cargo (methylene blue ([…]), methyl orange (0.2 nM), or ciprofloxacin (0.2 nM)), in a slightly modified version of the procedure described by Abraham et al.. After allowing to stand overnight, 1.5 mL of water was carefully added to the surface of the hydrogels. Aliquots of the layered solution (100 μL) were removed at 1 h, 2 h, 3 h, 4 h, 6 h, 24 h, 72 h, and 6 days from the time the water was initially layered on top of the hydrogel. After removing each aliquot, the volume water was immediately replaced by an equal volume of water. The concentration of methylene blue or methyl orange in each aliquot was determined by measuring the absorbance at λmax of the dye (666 nm for methylene blue and 465 nm for methyl orange) using a microplate reader and then converting the value to percentage release (using a standard calibration curve). The concentration of ciprofloxacin in each aliquot was determined using analytical HPLC, where the integrated peak area was converted to a percentage release (using a standard calibration curve). Each experiment was performed in triplicate, and the mean percentage cargo release was plotted against time.

For data set [5] the following is noted: Cbz-capped dehydrodipeptides; cited from earlier work. How it is done: Our research group, and others, have reported new dehydropeptides capable of forming hydrogels. The presence of a dehydroamino acid residue imparts increased proteolytic resistance into the hydrogels, as well as different physical properties arising from the decreased structural flexibility of the dehydropeptide chain [13, 14, 15, 16]. In our laboratories, several dehydrodipeptides capped on the N-terminus with naproxen (e.g., Npx-L-Phe-Z-ΔPhe-OH and Npx-L-Trp-Z-ΔPhe-OH) were prepared and tested as hydrogelators, providing hydrogels with critical gelation concentrations (CGCs) of between ... || Figure 1 (A) Our previously studied naproxen- and carboxybenzyl-capped dehydropeptide hydrogelators. (B) Examples of bolaamphiphilic hydrogelators in the literature. (C) Summary of hydrogel properties. (D) Combining the structures of N-capped dehydrohydropeptide gelators and bolaamphiphilic gelators into a single molecule. TEXT PRINTED IN THE PICTURE: (C) a: cgc (wt%): 0.4 (pH: 8.0) | (C) b: cgc (wt%): 0.4 (pH: 6.0) | (C) c: cgc (wt%): 0.1 (pH: 5.0) | (C) d: cgc (wt%): 0.2 (pH: 5.0) | (C) e: cgc (wt%): 2.5 (pH: 2.0) | (C) f: cgc (wt%): 5.0 (pH: 3.3)

The mark [6] stands for this setting: standing overnight at room temperature (20–25 °C).

Take `O=C(O)/C(=C/c1ccccc1)NC(=O)[C@H](Cc1ccccc1)NC(=O)c1ccc2cc(C(=O)N[C@@H](Cc3ccccc3)C(=O)N/C(=C\c3ccccc3)C(=O)O)ccc2c1` [Compound 3]: the “pH (gelation conditions)” value in data set [1] (pH of hydrogel at cgc after GDL 0.4 wt %) was determined as 5.30. For the same compound, the entries for the “Critical Gelation Concentration (cgc)” value in data set [1] (overnight at room temperature) and in data set [1] (setting [6]) were 3.7 mM and 0.3 wt %, respectively. Further, in data set [2], the “G′” value is 3.7 × 10^2 Pa. For the same compound, in data set [2], the “G″” value is 1.3 × 10^1 Pa. Also, the “Apparent loss of cell viability (mitochondrial activity)” value in data set [3] is on record as “around 20%”. Also, the “K, release rate constant, Korsmeyer–Peppas model” value in data set [4] (ciprofloxacin release profile) is reported as 0.0001; in data set [4] (methyl orange release profile), 0.0400. Further, the entries for the “n, release exponent, Korsmeyer–Peppas model” value in data set [4] (ciprofloxacin release profile) and in data set [4] (methyl orange release profile) were 0.6300 and 0.3300, respectively.

Consider Cbz-L-Tyr-Z-ΔPhe-OH, for which the CGC in data set [5] was 0.1%.

Cbz-L-Phe-Z-ΔPhe-OH: the CGC in data set [5] is 0.1%.

As for `O=C(O)/C(=C/c1ccccc1)NC(=O)[C@H](Cc1ccc(O)cc1)NC(=O)c1ccc2cc(C(=O)N[C@@H](Cc3ccc(O)cc3)C(=O)N/C(=C\c3ccccc3)C(=O)O)ccc2c1` [Compound 4], the Hydrogel formation result in data set [1] (slow pH drop by GdL hydrolysis from pH 10–11, for 4 several triggers (pH, temperature, solvent exchange), 0.3–0.8 wt %) is on record as “failed to give hydrogels”. The “Critical Gelation Concentration (cgc)” value in data set [1] (overnight at room temperature) and in data set [1] (setting [6]) was “No hydrogel” in each case. In data set [3], the “Apparent loss of cell viability (mitochondrial activity)” value is “around 20%”.
